Experimental data taken from patent US20240327421A1 (Marquette University, priority 2017, published 2024).
Several values for one entry are separate records, joined by “and”; a condition that tells them apart may be missing. Equal values may be shown once. Entries after “also recorded” stand apart in the source; their conditions may differ.

How the values were obtained:
[1] = biological target: T1, ERα LBD fused to GAL4 DBD (Homo sapiens, UniProt P03372); assay: GeneBLAzer cell-based transcriptional activation, chimeric ERα; details: agonist mode
T1 sequence (P03372 311-547 limits assumed): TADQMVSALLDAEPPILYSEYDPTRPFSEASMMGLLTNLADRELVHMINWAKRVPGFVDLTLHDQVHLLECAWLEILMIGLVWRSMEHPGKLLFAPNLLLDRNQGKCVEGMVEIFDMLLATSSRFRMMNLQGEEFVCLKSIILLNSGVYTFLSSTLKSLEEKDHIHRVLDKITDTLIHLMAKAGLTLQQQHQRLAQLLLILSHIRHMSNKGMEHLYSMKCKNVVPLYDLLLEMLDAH

[2] = biological target: T2, human ER Alpha ligand-binding domain (LBD) (Homo sapiens, UniProt P03372); assay: TR-FRET competitive binding assay, ERα LBD; details: displacement of fluorescent tracer from ERα LBD
T2 construct: purchased Thermo Fisher Scientific
T2 sequence (P03372 311-547 limits assumed): T1 sequence (P03372 311-547 limits assumed)
Text: TR-FRET Assay. LanthaScreen® TR-FRET ER Alpha and Beta Competitive Binding Assay kits from Thermo Fisher Scientific were used to perform the TR-FRET assays. These included a terbium-labeled anti-GST antibody, a fluorescent small molecule ER Alpha or Beta ligand as a “tracer”, and a human ER Alpha or Beta ligand -binding domain (LBD) that is tagged with glutathione-S-transferase (GST) in a homogenous mix- and -read assay format.
The TR-FRET assay employs a Tb-anti-GST antibody that binds to a GST tag, and a fluorescently labeled estrogen (tracer) binds in the active site pocket. The TR-FRET signal obtained decreases when competitor compounds displace the fluorescently labeled tracer. Assays were performed according to kit instructions. Briefly, 1:5 dilution series of compounds were made with DMSO, then diluted in assay buffer such that the highest concentration tested in the assay was 50 μM for ERβ and 50 μM for ERα and DMSO was 1%. […] TR-FRET signal was read on a SpectraMax M5 (Molecular Devices) set-up according to Thermo Fisher Scientific machine settings (excitation of 332 nm, emissions 518 nm and 488 nm with a 420 nm cutoff, 50 μs integration delay, 400 μs integration time, and 100 flashes per read). The TR-FRET ratio was calculated using the SoftmaxPro software by dividing the emission at 518 nm (fluorescein) by the emission at 488 nm (Terbium). […]

CYP2C9 = biological target: T3, CYP2C9 (Homo sapiens, UniProt P11712); assay: P450-Glo CYP450 inhibition, CYP2C9; format: in vitro ADME; details: highest concentration 62.6 μM
T3 construct: purchased Promega Corporation (Madison, WI)
T3 sequence (P11712 whole entry): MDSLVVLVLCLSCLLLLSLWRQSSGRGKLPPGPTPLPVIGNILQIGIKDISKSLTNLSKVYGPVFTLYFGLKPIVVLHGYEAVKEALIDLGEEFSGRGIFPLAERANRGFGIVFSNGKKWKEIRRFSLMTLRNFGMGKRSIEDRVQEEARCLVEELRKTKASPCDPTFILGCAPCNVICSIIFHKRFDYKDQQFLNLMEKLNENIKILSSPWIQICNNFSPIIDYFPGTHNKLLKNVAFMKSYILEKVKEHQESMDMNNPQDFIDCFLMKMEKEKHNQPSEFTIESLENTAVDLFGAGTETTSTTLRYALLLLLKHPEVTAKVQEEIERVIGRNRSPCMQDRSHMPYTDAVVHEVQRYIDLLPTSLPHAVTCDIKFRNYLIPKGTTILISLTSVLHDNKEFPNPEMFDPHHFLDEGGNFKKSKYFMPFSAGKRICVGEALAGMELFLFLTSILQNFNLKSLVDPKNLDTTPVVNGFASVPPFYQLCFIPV
Experimental: (§1) In Vitro Druggability Assays-CYP450 Binding, hERG & Nephelometry. The P450-Glo™ Screening System from Promega Corporation (Madison, WI) was used to measure CYP450 (cytochrome P450) inhibition, as described in the kit instructions. Assays were run in 96-well white plates (Corning® 3912), and luminescence was measured on a SpectraMax M5 instrument (FIG. 6). The luminescence signal is proportional to the amount of luciferin product formed by the CYP reaction. Compounds were prepared in DMSO, then an eight-step 1:2 dilution series was made in DMSO. […] After adding the relevant Cytochrome P450 enzyme, the plate was incubated at 37° C. for 10 minutes to allow components to come to temperature. Next, the NADPH regeneration system was added to activate the reaction on a luminogenic P450-GloTM substrate, and incubated at 37° C. for 10-30 min, according to kit instructions for each CYP enzyme. The enzyme reaction was stopped by the addition of Luciferin Detection Reagent and luminescence of the plate was read in a Spectramax M5 (Molecular Devices) after a 20 min incubation at room temperature. Data were normalized to positive controls (α-naphthoflavone for CYP1A2, sulfaphenazole for CYP2C9, quinidine for CYP2D6, and ketoconazole for CYP3A4). Data analysis was with Prism software, as described above.

[3] = biological target: T4, Glucocorticoid Receptor (GR) (Homo sapiens, UniProt P04150); assay: GeneBLAzer nuclear hormone receptor specificity assay, GR; format: cell-based; details: 0.25 to 25 μM; listed as ISP358-2
T4 sequence (P04150 524-758 limits assumed): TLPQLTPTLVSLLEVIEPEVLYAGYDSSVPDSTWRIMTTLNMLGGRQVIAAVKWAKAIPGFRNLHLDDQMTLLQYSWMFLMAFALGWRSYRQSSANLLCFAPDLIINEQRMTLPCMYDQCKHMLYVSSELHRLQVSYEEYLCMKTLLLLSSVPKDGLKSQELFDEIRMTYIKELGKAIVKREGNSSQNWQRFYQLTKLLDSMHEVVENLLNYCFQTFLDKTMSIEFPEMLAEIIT

[4] = Nephelometry (aggregation / solubility)
CYP2D6 = biological target: T5, CYP2D6 (Homo sapiens, UniProt P10635); assay: P450-Glo CYP450 inhibition, CYP2D6; format: in vitro ADME; details: highest concentration 62.6 μM; listed as ISP358-2
T5 construct: purchased Promega Corporation (Madison, WI)
T5 sequence (P10635 whole entry): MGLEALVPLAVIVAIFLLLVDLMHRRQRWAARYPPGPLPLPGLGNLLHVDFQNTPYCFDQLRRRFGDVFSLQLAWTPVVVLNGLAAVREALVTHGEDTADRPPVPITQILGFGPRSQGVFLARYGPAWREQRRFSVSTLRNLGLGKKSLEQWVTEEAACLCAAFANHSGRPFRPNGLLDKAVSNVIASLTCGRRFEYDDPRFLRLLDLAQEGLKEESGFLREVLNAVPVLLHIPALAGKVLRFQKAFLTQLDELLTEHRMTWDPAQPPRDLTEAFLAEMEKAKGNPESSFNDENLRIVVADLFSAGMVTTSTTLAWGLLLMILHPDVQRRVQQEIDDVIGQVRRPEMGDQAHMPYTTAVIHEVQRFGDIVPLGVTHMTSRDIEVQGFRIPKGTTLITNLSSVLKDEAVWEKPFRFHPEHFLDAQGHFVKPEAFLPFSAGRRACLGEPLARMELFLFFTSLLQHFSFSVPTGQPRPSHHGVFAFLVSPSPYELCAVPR
Experimental: as §1

ERα = biological target: T6, ERα (Homo sapiens, UniProt P03372); assay: Cell-based luciferase reporter assay, full length ERα, agonist mode; details: full length ERα, 22 h, read-out: ERα agon. IC50
T6 construct: employs a full length and native ER (comprised of an ER LBD and an ER DBD)
T6 sequence (P03372 1-595): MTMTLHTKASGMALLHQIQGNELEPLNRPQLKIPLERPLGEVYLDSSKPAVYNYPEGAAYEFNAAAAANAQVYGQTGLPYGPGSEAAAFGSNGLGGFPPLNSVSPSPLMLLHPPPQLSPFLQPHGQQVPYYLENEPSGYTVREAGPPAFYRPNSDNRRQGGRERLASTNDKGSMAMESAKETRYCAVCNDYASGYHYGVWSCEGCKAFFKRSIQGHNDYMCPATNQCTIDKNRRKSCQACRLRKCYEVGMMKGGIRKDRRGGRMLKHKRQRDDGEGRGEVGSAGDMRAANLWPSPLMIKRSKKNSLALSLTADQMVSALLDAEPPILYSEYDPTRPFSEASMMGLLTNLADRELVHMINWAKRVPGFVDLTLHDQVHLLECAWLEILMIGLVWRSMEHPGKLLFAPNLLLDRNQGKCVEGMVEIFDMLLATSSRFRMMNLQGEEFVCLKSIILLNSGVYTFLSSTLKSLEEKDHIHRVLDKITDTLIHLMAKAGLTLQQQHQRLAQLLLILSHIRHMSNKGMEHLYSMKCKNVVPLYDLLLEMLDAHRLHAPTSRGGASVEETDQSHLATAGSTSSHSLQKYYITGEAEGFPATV

OC[C@H]1CC[C@H](c2ccc(O)cc2)CC1 [Compound 16]
IC50 [1]: 930 ± 69 nM | IC50 [2]: 289 ± 92 nM | CYP2C9 inhibition (CYP2C9): no significant inhibition | IC50 (CYP2C9): 34 ± 4.7 µM | agonist activity, GR [3]: not an agonist; also recorded: no significant off-target activity | solubility / aggregation by nephelometry [4]: reasonably soluble | CYP2D6 inhibition (CYP2D6): no significant inhibition | IC50 (ERα): 20.4 µM and 18.6 µM
